Laboratory results reported in BindingDB's records for doi:10.1016/S0960-894X(01)80331-0 (1994).

Experiments:
[1] = In Vitro Binding affinity againist 5-HT1A receptor by displacing [3H]8-OH-DPAT from pig cortex
[2] = In Vitro Binding affinity againist 5-hydroxytryptamine 1D receptor by displacing [125I]GTI from pig caudate
[3] = In Vitro Binding affinity againist 5-hydroxytryptamine 2C receptor by displacing [3H]mesulergine from pig cortex

| IC50 [1] [nM] | IC50 [2] [nM] | IC50 [3] [nM] | Structure (SMILES) |
| --- | --- | --- | --- |
| 4.6 | 43 | 661 | NCCc1coc2ccc(C(N)=O)cc12 |
| 72 | 776 | 8130 | NCCC1COc2ccc(C(N)=O)cc21 (stereo unspecified) |
